Experiments:
[1] = system: ILK, Akt (serine 473) in C2C12 myoblasts and embryonic heart explants; test: ILK localization/expression and Akt phosphorylation by immunocytochemistry and western blot; type: cell-based
Protocol: (§1) Immunocytochemistry on collagen gel explants. Paraformaldehyde-fixed explants were permeabilized for 10 min at room temperature with Permeabilize solution (10 mM PIPES pH 6.8; 50 mM NaCl, 0.5% Triton X-100, 300 mM sucrose, 3 mM MgCl2) and rinsed with PBS twice for 5 min each at room temperature. After a series of blocking and rinsing steps, detection antibodies were used and explants rinsed and incubated with equilibration buffer (Anti-Fade kit) for 10 min at room temperature. Explants were scooped to a glass microscope slide, covered and examined by fluorescein microscopy. TUNEL assay was performed using ApopTag plus fluorescein in situ apoptosis detection kit (Intergen Company S7111) as recommended.
Because recruitment of ILK to the focal adhesion complex is important for its activation, the inventors assayed the effects of thymosin β4 on ILK localization and expression. […] Because thymosin β4 sequesters the pool of G-actin monomers, the inventors asked whether the effects on ILK activation were dependent on the role of thymosin β4 in regulating the balance between polymerized F-actin and monomeric G-actin.

[2] = system: E11.5 cardiac outflow tract explants (myocardial cells); test: Collagen gel migration assay, embryonic heart explant: myocardial cell migration and beating; type: cell-based, mouse
Protocol: Collagen gel migration assay. Outflow tract was dissected from E11.5 wild-type mouse embryos and placed on collagen matrices as previously described (Runyan and Markwald, 1983. After 10 h of attachment explants were incubated in 30 ng per 300 μl thymosin β4 in PBS, PBS alone or thymosin β4 and 100 nM wortmannin. Cultures were carried out for 3-9 days at 37° C. 5% CO2 and fixed in 4% paraformaldehyde in PBS for 10 min at room temperature. Cells were counted for quantification of migration and distance using at least three separate explants under each condition for endothelial migration and eight separate explants for myocardial migration.
as §1
To test the effects of secreted thymosin β4 on cardiac cell migration, the inventors used an embryonic heart explant system designed to assay cell migration and transformation on a collagen gel (Runyan and Markwald, 1983).
To determine whether activation of ILK was necessary for the observed effects of thymosin β4, the inventors used a well-described ILK inhibitor, wortmannin, which inhibits ILK's upstream kinase, phosphatidylinositol-3-OH kinase (PI(3)K) (Delcommenne et al., 1998). Using myocardial cell migration and beating frequency as assays for thymosin β4 activity, the inventors cultured embryonic heart explants as described above in the presence of thymosin β4 with or without wortmannin.

[3] = system: C57BL/6J mice after ligation of the left anterior descending coronary artery; test: Myocardial infarction by coronary artery ligation: echocardiography, scar, TUNEL; type: in vivo, mouse
Text: Immunohistochemistry. Embryonic or adult cardiac tissue was embedded in paraffin and sections used for immunohistochemistry. […] Adult hearts were sectioned at ten equivalent levels from the base of the heart to the apex. Serial sections were used for trichrome sections and reaction with muscle actin, c-kit, Sca-1, Abcg2 and BrdU antibodies and for TUNEL assay (Intergen Company S7111).
(§2) Animals and surgical procedures. Myocardial infarction was produced in 58 male C57BL/6J mice at 16 weeks of age (25-30 g) by ligation of the left anterior descending coronary artery as previously described (Garner et al., 2003). All animal protocols were reviewed and approved by the University of Texas Southwestern Medical Center Institutional Animal Care Advisory Committee and were in compliance with the rules governing animal use as published by the NIH. Twenty-nine of the ligated mice received thymosin β4 treatment immediately after ligation and the remaining 29 received PBS injections. Treatment was given intracardiac with thymosin β4 (200 ng in 10 μl collagen) or with 10 μl of collagen; intraperitoneally with thymosin β4 (150 μg in 300 μl PBS) or with 300 μl of PBS; or by both intracardiac and intraperitoneal injections. Intraperitoneal injections were given every 3 days until mice were killed. Doses were based on previous studies of thymosin β4 biodistribution (Mora et al., 1997). Hearts were removed, weighed and fixed for histological sectioning. Additional mice were operated on in a similar fashion for studies 0.5, 1, 3, 6 and 11 days after ligation.
Analysis of cardiac function by echocardiography. Echocardiograms to assess systolic function were performed using M-mode and two-dimensional measurements as described previously (Garner et al., 2003). The measurements represented the average of six selected cardiac cycles from at least two separate scans performed in random-blind fashion with papillary muscles used as a point of reference for consistency in level of scan. End diastole was defined as the maximal left ventricle diastolic dimension and end systole was defined as the peak of posterior wall motion. Single outliers in each group were omitted for statistical analysis. Fractional shortening (FS), a surrogate of systolic function, was calculated from left ventricle dimensions as follows: FS=((EDD−ESD)/EDD)×100%. Ejection fraction (EF) was calculated from two-dimensional images.
Calculation of scar volume. Scar volume was calculated using six sections through the heart of each mouse using Openlab 3.03 software (Improvision) similar to that previously described (Balsam et al., 2004). Percent area of collagen deposition was measured on each section in a blinded fashion and averaged for each mouse.
Statistical analyses. Statistical calculations were performed using a standard t-test of variables with 95% confidence intervals.
Thymosin β4 promotes cell survival after myocardial infarction and improves cardiac function. Because of the effects of thymosin β4 on cardiac cells in vitro, the inventors tested whether thymosin β4 might aid in cardiac repair in vivo after myocardial damage. The inventors created myocardial infarctions in 58 adult mice by coronary artery ligation and treated half with systemic, intracardiac, or systemic plus intracardiac thymosin β4 immediately after ligation and the other half with PBS (FIGS. 4A-E). All 45 mice that survived 2 weeks later were interrogated for cardiac function by random-blind ultrasonography at 2 and 4 weeks after infarction by multiple measurements of cardiac contraction (FIGS. 4A-D).
TUNEL-positive cells that were also myocytes were rare in the thymosin β4 group but abundant in the control hearts. […] Thus, the decreased scar volume and preserved function of thymosin-β4-treated mice were probably due to early preservation of myocardium after infarction through the effects of thymosin β4 on survival of cardiomyocytes.

[4] = system: rat neonatal cardiomyocytes; test: Primary neonatal cardiomyocyte culture on laminin-coated glass: migration, survival, beating; type: cell-based
Text: To test the response of postnatal cardiomyocytes, the inventors cultured primary rat neonatal cardiomyocytes on laminin-coated glass and treated the cells with phosphate-buffered saline (PBS) or thymosin β4.
Primary culture of neonatal cardiomyocytes typically survives for approximately 1 to 2 weeks, with some cells beating for up to 2 weeks when grown on laminin-coated slides in our laboratory. […] In addition, the rate of beating was consistently faster in thymosin-β4-treated neonatal cardiomyocytes (95 versus 50 beats per minute, P<0.02), indicating either a change in cell-cell communication or cell metabolism (FIG. 2M; see also Supplementary FIGS. 1A-I and 2A-M).

[5] = target: T1, ILK (Homo sapiens, UniProt Q13418); test: Co-immunoprecipitation of thymosin β4 with ILK; type: binding
T1 construct: expressed in transfected cells; host or cells: Cos and 10T1/2 cells
T1 sequence (Q13418 1-452): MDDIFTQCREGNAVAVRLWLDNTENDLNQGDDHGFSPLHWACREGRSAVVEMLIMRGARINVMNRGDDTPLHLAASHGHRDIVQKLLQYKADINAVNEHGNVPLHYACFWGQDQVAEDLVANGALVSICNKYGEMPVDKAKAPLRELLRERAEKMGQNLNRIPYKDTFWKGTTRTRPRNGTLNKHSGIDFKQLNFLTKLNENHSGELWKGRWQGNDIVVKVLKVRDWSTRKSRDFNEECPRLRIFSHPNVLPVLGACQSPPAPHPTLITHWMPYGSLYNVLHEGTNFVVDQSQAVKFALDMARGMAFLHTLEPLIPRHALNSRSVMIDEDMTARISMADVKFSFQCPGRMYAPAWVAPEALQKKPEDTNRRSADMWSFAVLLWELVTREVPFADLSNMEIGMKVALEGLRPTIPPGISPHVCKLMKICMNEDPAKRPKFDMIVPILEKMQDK
Protocol: (§3) Co-immunoprecipitation. Cos and 10T1/2 cells were transfected with thymosin β4, PINCH and/or ILK and lysates precipitated with antibodies to each as previously described (Garg et al., 2003). Western blots were performed using anti-ILK polyclonal antibody (Santa Cruz), anti-thymosin β4 polyclonal antibody (Yu et al., 1993) (gift of H. Yin) and anti-Myc or anti-Flag antibody against tagged versions of PINCH.
Thymosin β4 activates ILK and Akt. To investigate the potential mechanisms through which thymosin β4 might be influencing cell migration and survival events, the inventors searched for thymosin β4 interacting proteins. The amino terminus of thymosin β4 was fused with affi-gel beads resulting in exposure of the C-terminus, which allowed identification of previously unknown interacting proteins but prohibited association with actin. The inventors synthesized and screened an E9.5-E12.5 mouse heart T7 phage complementary DNA library by phage display, and thymosin-β4-interacting clones were enriched and confirmed by enzyme-linked immunosorbent assay (ELISA, FIG. 3A). […] PINCH and ILK interact directly with one another and indirectly with the actin cytoskeleton as part of a larger complex involved in cell-extracellular matrix interactions known as the focal adhesion complex. […]

[6] = system: ILK, phosphorylated Akt-S 473; test: Western blot on heart lysates after coronary ligation; type: in vivo, mouse
Text: as §2
Similar to cultured cells, the level of ILK protein was increased in heart lysates of mice treated with thymosin β4 after coronary ligation compared with PBS-treated mice (FIG. 5N).

[7] = target: T2, PINCH (Mus musculus, UniProt Q99JW4); test: Phage display, ELISA and co-immunoprecipitation of thymosin β4 interacting proteins: PINCH; type: binding
T2 construct: Myc or Flag (co-immunoprecipitation part only); expressed in transfected cells; host or cells: Cos and 10T1/2 cells (co-IP); T7Select10-3 phage displaying mouse embryonic heart cDNA (phage display / ELISA)
Text: Embryonic T7 phage display cDNA library and phage biopanning. Equal amounts of messenger RNA were isolated and purified from E9.5-E12.5 mouse embryonic hearts by using Straight A's mRNA Isolation System (Novagen). cDNA was synthesized by using T7Select10-3 OrientExpress cDNA Random Primer Cloning System (Novagen). The vector T7Select10-3 was used to display random-primed cDNA at the C terminus of 5-15 phage 10B coat protein molecules. 10^9 plaque-forming units of the T7 phage embryonic heart library (100× of the complexity) in 500 μl of PBST was applied to a column of Affi-gel bound to thymosin β4 to achieve low-stringency biopanning to identify thymosin β4 interacting partners. See Supplementary Methods for details of phage packaging, phage biopanning and ELISA confirmation.
as §3
Thymosin β4 activates ILK and Akt. […]

[8] = compared to control cells, data not shown

T2 sequence (Q99JW4 whole entry): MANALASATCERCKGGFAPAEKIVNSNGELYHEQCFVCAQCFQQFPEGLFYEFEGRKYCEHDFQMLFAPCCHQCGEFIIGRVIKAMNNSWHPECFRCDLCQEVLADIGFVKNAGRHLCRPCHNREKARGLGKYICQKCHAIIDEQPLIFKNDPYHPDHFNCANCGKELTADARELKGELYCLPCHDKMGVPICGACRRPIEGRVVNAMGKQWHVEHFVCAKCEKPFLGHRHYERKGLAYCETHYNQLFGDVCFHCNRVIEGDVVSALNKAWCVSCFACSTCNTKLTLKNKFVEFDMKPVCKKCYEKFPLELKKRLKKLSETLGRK

Q: How did the “effect on thymosin β4-induced ILK activation” value ([1]; COS1 or C2C12 cells, F-actin polymerization inhibited, data not shown) turn out when C3 transferase [reference compound] was run?
A: neither intervention affected the ILK activation

Q: For thymosin β4, which “myocardial cell migration away from the explant” value ([2]; E11.5 outflow tract explants on collagen, 30 ng per 300 μl thymosin β4 vs PBS, P<0.0001) is on record?
A: large number of spontaneously beating, cardiac muscle actin-positive cells that migrated away from the explant

Q: And the “cell death of migrating cells (TUNEL assay)” value [2, 8]?
A: No significant difference

Q: What about the “proliferative rate of migrating cells (phospho-histone H3 immunostaining)” value [2, 8] of the same substance?
A: No significant difference

Q: And the “ILK protein levels (western)” value ([1]; C2C12 cells)?
A: modest increase

Q: And the “total Akt protein” value ([1]; C2C12 cells)?
A: unchanged

Q: What about the “phosphorylation of Akt at serine 473” value ([1]; C2C12 cells, phospho-specific antibody) of the same substance?
A: increased phosphorylation

Q: And the “ILK detection around the cell edges by immunocytochemistry” value ([1]; embryonic heart explants or C2C12 myoblasts, synthetic protein 10 ng per 100 μl or expressing plasmid)?
A: markedly enhanced

Q: And the “cardiomyocyte proliferation or death” value ([3]; 3, 6, 11 or 14 days after coronary ligation, data not shown)?
A: did not detect significant

Q: And the “cell death by TUNEL assay in cardiomyocytes” value ([3]; 24 h after ligation)?
A: marked decrease

Q: And the “TUNEL-positive cells that were also myocytes” value ([3]; 24 h after ligation, abundant in control hearts)?
A: rare

Q: What about the ejection fraction ([3]; 3 days after infarction, intracardiac treatment, control 44.7±8.4%, P<0.02) of the same substance?
A: 64.2±6.69%

Q: What about the “left ventricle fractional shortening” value ([3]; 3 days after infarction, intracardiac treatment, n=4, 95% confidence interval, control 28.8±2.26%, P<0.02) of the same substance?
A: 39.2±2.34%

Q: And the “cardiac dilation (end diastolic and end systolic dimensions)” value ([3]; after infarction, EDD and ESD significantly higher in control group)?
A: decreased cardiac dilation

Q: And the mean ejection fraction ([3]; four weeks after coronary ligation, n=23, 95% confidence interval, control 28.2±2.5%, P<0.0001)?
A: 57.7±3.2%

Q: And the “mean left ventricular fractional shortening” value ([3]; four weeks after infarction, n=23, 95% confidence intervals, control 23.2±1.2%, P<0.0001)?
A: 37.2±1.8%

Q: And the scar volume ([3]; six levels of sections through left ventricle, subset of mice, P<0.05)?
A: significant reduction

Q: And the “degree of functional improvement, intraperitoneal versus intracardiac administration” value ([3]; systemic i.p. 150 μg vs local 200 ng within the infarct)?
A: not statistically different

Q: And the “size of scar (trichrome stain)” value ([3]; three levels of section, all treated mice)?
A: reduced

Q: What about the “number of c-kit, Sca-1 or Abcg2 positive cardiomyocytes” value ([3]; treated vs untreated hearts, data not shown) of the same substance?
A: failed to detect any differences

Q: What about the “size of scar, systemic versus local delivery” value ([3]; trichrome stain) of the same substance?
A: not different

Q: What about the “improvement in cardiac fractional shortening” value ([3]; versus control, four weeks) of the same substance?
A: greater than 60%

Q: And the “improvement in ejection fraction” value ([3]; versus control, four weeks)?
A: > 100%

Q: And the “time for which rhythmically contracting myocytes were visible” value ([4]; controls beat for up to 2 weeks)?
A: up to 28 days

Q: What about the “survival of neonatal cardiomyocytes in primary culture” value ([4]; controls typically survive approximately 1 to 2 weeks) of the same substance?
A: survived significantly longer

Q: What about the “migrational distance of neonatal cardiomyocytes” value ([4]; laminin-coated glass, vs PBS control, P<0.05) of the same substance?
A: significantly increased

Q: What about the rate of beating ([4]; versus 50 in control, P<0.02) of the same substance?
A: 95 beats per minute

Q: And the “strength of interaction of ILK with thymosin β4 in the common complex” value ([5]; immunoprecipitation of PINCH, ILK and thymosin β4)?
A: weaker than with PINCH

Q: What about the “co-precipitation with ILK” value ([5]; transfected cultured cells) of the same substance?
A: co-precipitated

Q: And the “level of ILK protein in heart lysates” value ([6]; compared with PBS-treated mice)?
A: increased

Q: What about the “amount of phosphorylated Akt-S 473 in heart lysates” value ([6]; phospho-specific antibodies) of the same substance?
A: elevation

Q: What about the “interaction with PINCH (phage display, ELISA)” value ([7]; in the absence of actin, N-terminus fused to affi-gel beads) of the same substance?
A: interacted

Q: What about the “co-precipitation with PINCH” value ([7]; transfected cultured cells) of the same substance?
A: co-precipitated

— patent publication US7531318B2, “Screening of agents for activity against ischemic myocardial insults” (priority 2004, dated 2009)
